US5688771A, “Lipophilic oligopeptides with immunomodulating activity” (priority 1993, dated 1997)
Where “and” joins values, the source holds several entries; their conditions need not be identical. Identical values can stand only once. Entries after “also recorded” stand apart in the source; their conditions may differ. Like-named read-outs stand apart in the source and are kept apart here.

Assays:
[1] = test system: Macrophage function (IL-1 activity in splenocytes); test: Macrophage function, IL-1 activity in splenocytes by [3H]thymidine uptake in PHA-stimulated thymocytes
Description: (§1) Mice were administered a 50 mg/kg dose of the immunomodulators of the invention and were subsequently sacrificed. The spleens were harvested and splenocytes isolated. Immunologic assays were conducted on those splenocytes that were taken 24 hours after final treatment. These cells were subjected to tests to determine macrophage and natural killer (NK) cell function.
Ribavarin (1-β-D-ribofuranosyl-1,2,4-triazole-carboxamide) was used in each subsequent experiment as a control.
(§2) Animals were treated with a 50 mg/kg/day dosage of one of the tested compound and were killed 24 hr after the final treatment and their spleens removed. […] Red blood cells were removed by haemolytic lysis.
Macrophage function was assessed by an interleukin-1 (IL-1) assay that utilizes responsiveness of mouse thymocytes to phytohemagglutin (PHA) which is dependent on IL-1 for its reactivity.
The cells were incubated 72 hr at 37° C. During the last 4 hr of the incubation, the cells were pulsed with [^3 H] thymidine (1 μCi/well). The cells were then harvested and [H^3 ] thymidine incorporation was determined using a direct counter.

YAC-1 tumor cells [2] = test: Natural killer cell activity, 4 hr chromium release assay
Description: as §1
Three week-old C57 BL/6 mice were procured and quarantined for 24 to 48 hours prior to treatment. The five oligopeptides described in tables 2, 3 and 4 were admixed with a 0.4% water solution of carboxymethylcellulose. The solutions were stored at 4° C. until use. Ribavarin (1-β-D-ribofuranosyl-1,2,4-triazole-carboxamide) was used in each subsequent experiment as a control.
as §2
Natural killer (NK) activity of murine cells was determined by testing splenic cells for their ability to lyse YAC-1 tumor cells in a conventional 4 hr chromium release assay as an indicator of NK was expressed as: % chromium release=(experimental counts per minute (cpm)-background cpm)/(maximum cpm-background cpm)

[3] = test system: murinecytomegalovirus (MCMV) (Smith strain); test: MCMV titers in tissues; format: in vivo, Swiss Webster female mice
[4] = test system: murinecytomegalovirus (MCMV) (Smith strain); test: Mortality in MCMV-infected mice; format: in vivo, Swiss Webster female mice; details: for Survivors (%) / Survivors/total / Mean day to death: MCMV-infected mice; for Survivors (%) / Survivors/total: 21 days; for Mean day to death: of mice that died on or before day 21
[5] = test system: IgM antibody against SRBC antigen; test: Enzyme immunoassay of IgM antibody in blood of SRBC-immunized mice; format: in vivo; details: Experiment 7, 10 mg/kg i.p.
Description: Outbred CD1 mice were immunized with 0.1% volume for volume sheep red blood cell antigen suspended in saline. The mice were injected intraperitoneally with 0.5 ml, suspension of approximately 2×10^7 cells.
The mice were injected shortly thereafter with a suspension of an immunomodulator of the invention. The immunomodulator dose was a 0.23 ml of a 1 mg/ml suspension in phosphate buffered saline. The injected dose was 10 mg/kg. The second injection was also intraperitoneal.
The mice were killed five days after injections. Blood samples were taken for analysis of immunoglobulin. The determination was made by enzyme immunoassay using an anti μ-horseradish peroxidase conjugate. The spleen was removed, transferred to a petri dish containing 2 ml of Hank's balanced salt solution and 10 mMolar Hepes buffer (HBSS-HEPES). The spleen was gently crushed by the use of forceps, and the cell suspension was filtered through cotton gauze to eliminate cellular debris. The filtered suspension was brought to volume (5 ml) by the addition of HBSS-HEPES, the cells counted, and the suspension diluted to a final concentration of 5×10^6 cells/ml.

[6] = Toxicity controls: mortality and weight gain in uninfected mice; format: in vivo; details: uninfected mice; for Mean Weight Gain: start of treatment to 24 hours after final treatment
Description: Groups of 5 uninfected mice were treated the same way and at the same times as described above. These animal were checked daily for survival. Their weigths were taken before the first treatment and 24 hours after the last treatment to determine drug effect on weight gain.

[7] = test system: Total T and B cells in splenocytes; test: Splenic T and B cell enumeration by FACS; format: in vivo, C57BL/6 mice
Text: Splenic cells were enumerated with the following assay. Dispersed splenocytes were reacted with fluorescein isothiocyanate-labelled murine monoclonal antibody anti-Ly5 for B cell enumeration and phycoerythrin-labelled monoclonal antibody anti-Thy 1.2 for T cell counts. The labelled cells were then enumerated with a fluorescence-activated cell sorter (FACS) (EPICS-C, Coulter Corp., Hialeah, Fla.).

[8] = test system: antibody producing cells (SRBC antigen); test: Plaque forming assay (PFC) in spleen cells of SRBC-immunized mice; format: in vivo
YAC-1 tumor cells [9] = format: in vivo, BALB/c mice; details: for Mean percent chromium release (2SE), Effector:Target 25:1 / Mean percent chromium release (2SE), Effector:Target 50:1 / Mean percent chromium release (2SE), Effector:Target 100:1: ip, Hydrochloride
[10] = test system: Macrophage activation (IL-1 concentration); design: species or system BALB/c mice; details: mouse, in vivo, Hydrochloride
[11] = 50 mg/kg/day i.p. every other day for 4 injections, splenocytes 24 hr after final treatment, n = 5
[12] = 50 mg/kg, splenocytes 24 hours after final treatment, Hydrochloride
[13] = prophylactic treatment, three doses 50-200 mg/kg i.p., Hydrochloride
[14] = 50 mg/kg i.p. days -1,+1,+3,+5,+7
[15] = 100 mg/kg i.p. days -1,+1,+3,+5,+7
[16] = 200 mg/kg i.p. days -1,+1,+3,+5,+7
[17] = 50 mg/kg, splenocytes, Hydrochloride

## CCCCCCCCCCCCCCCCCCN[C@H](C)C(=O)N[C@@H](CCC(N)=O)C(=O)O.Cl [BCH-527, Octadecyl D-Alanyl L-Glutamine Hydrochloride]
[1]; [11]
  Mean CPM of Treated Thymocytes ± SD: 5660 ± 1011 CPM
[1]; [12]
  Effect on macrophage function (in words): somewhat stimulatory; also recorded: macrophage stimulation
YAC-1 tumor cells [2]; [11]
  % Chromium Release ± SD, Effector:Target Ratio 25:1: 13.9 ± 2.0%
  % Chromium Release ± SD, Effector:Target Ratio 50:1: 24.0 ± 1.7%
YAC-1 tumor cells [2]; [12]
  Effect on natural killer (NK) cell activity (in words): significantly stimulate; also recorded: stimulated
[3]; Day 3, 50 mg/kg
  Virus titer in Liver: 3.1±0.7 Log10 CCID50/qram
  Virus titer in Lung: < 2.5±0.0 Log10 CCID50/qram
  Virus titer in spleen: 6.1±0.6 Log10 CCID50/qram
[3]; Day 3, 100 mg/kg
  Virus titer in Liver: 2.9±0.7 Log10 CCID50/qram
  Virus titer in Lung: < 2.5±0.0 Log10 CCID50/qram
  Virus titer in salivary gland: 3.0±0.4 Log10 CCID50/qram
  Virus titer in spleen: 4.7±1.6 Log10 CCID50/qram
[3]; Day 3, 200 mg/kg
  Virus titer in Liver: 2.9±0.4 Log10 CCID50/qram
  Virus titer in Lung: < 2.5±0.0 Log10 CCID50/qram
  Virus titer in salivary gland: < 2.5±0.0 Log10 CCID50/qram
  Virus titer in spleen: 5.3±0.4 Log10 CCID50/qram
[3]; Day 6, 50 mg/kg
  Virus titer in Liver: 3.1±1.1 Log10 CCID50/qram
  Virus titer in Lung: 3.4±0.6 Log10 CCID50/qram
  Virus titer in spleen: 4.3±1.2 Log10 CCID50/qram
[3]; Day 6, 100 mg/kg
  Virus titer in Liver: < 2.5±0.0 Log10 CCID50/qram
  Virus titer in Lung: 3.9±0.8 Log10 CCID50/qram
  Virus titer in salivary gland: 2.8±0.3 Log10 CCID50/qram
  Virus titer in spleen: 4.9±0.6 Log10 CCID50/qram
[3]; Day 6, 200 mg/kg
  Virus titer in Liver: < 2.5±0.0 Log10 CCID50/qram
  Virus titer in Lung: 3.1±0.4 Log10 CCID50/qram
  Virus titer in salivary gland: 3.5±0.7 Log10 CCID50/qram
  Virus titer in spleen: 3.7±0.7 Log10 CCID50/qram
[3]; [13]
  Effect on tissue virus titres (in words): reduced MCMV tissue virus titres; also recorded: reducing tissue virus titres
[4]; [14]
  Survivors (%): 90%
  Survivors/total: 9/10
[4]; 50 mg/kg i.p.
  Mean day to death: 4.0 ± 0.0 days
[4]; [15]
  Survivors (%): 78%
  Survivors/total: 7/9
[4]; 100 mg/kg i.p.
  Mean day to death: 10.5 ± 6.3 days
[4]; [16]
  Survivors (%): 100%
  Survivors/total: 10/10
[4]; 200 mg/kg i.p.
  Mean day to death: > 21 days
[4]; [13]
  Effect on death in CMV-challenged mice (in words): prevented death; also recorded: preventing death
[5]
  Enzyme Immunoassay, IgM antibody relative to control (100%): 523%
[6]; 50 mg/kg
  Survivors (%): 100%
  Survivors/total: 5/5
  Mean Weight Gain: 8.4 gm
[6]; 100 mg/kg
  Survivors (%): 100%
  Survivors/total: 5/5
  Mean Weight Gain: 9.0 gm
[6]; 200 mg/kg
  Survivors (%): 100%
  Survivors/total: 5/5
  Mean Weight Gain: 6.9 gm
[7]; 50 mg/kg/day i.p. every other day for 4 injections, anti-Ly5, n = 5
  % Cells/Spleen ± SD, B Cells: 43 ± 1.5%
[7]; 50 mg/kg/day i.p. every other day for 4 injections, anti-Thy 1.2, n = 5
  % Cells/Spleen ± SD, T Cells: 39 ± 2.3%
[7]; [17]
  Effect on B cell counts (in words): increase % B cells; also recorded: increased B cell counts
  Effect on T cell counts (in words): suppressing T cells; also recorded: suppressed T cell counts
[8]; Experiment 7, mice, 10 mg/kg i.p.
  Plaque Assay, PFC relative to control (100%): 6843%
[8]; Experiment 7, mice, 10 mg/kg i.p., five days after injections
  Plaque Assay, PFC per 10^6 spleen cells: 479 ± 322 PFC per 10^6 spleen cells
[8]; plaque-forming assay, Table 1
  Immunomodulating activity (in words): immunostimulants
YAC-1 tumor cells [9]; after 4 injections at 100 and 50 mg/kg/day, […]
  Effect on NK cells (in words): strong activation of NK cells
YAC-1 tumor cells [9]; mouse, in vivo
  Effect on natural killer cells activity (in words): stimulated the natural killer cells activity
YAC-1 tumor cells [9]; mouse, in vivo, 50 mg/kg/day
  Mean percent chromium release (2SE), Effector:Target 25:1: 10.8(1.3) percent and 12.7(0.4) percent and 14.8(0.9) percent
  Mean percent chromium release (2SE), Effector:Target 50:1: 17.6(1.1) percent and 17.1(0.6) percent and 18.5(1.0) percent
  Mean percent chromium release (2SE), Effector:Target 100:1: 21.2(2.9) percent and 23.3(1.0) percent and 23.9(1.1) percent
YAC-1 tumor cells [9]; mouse, in vivo, 100 mg/kg/day
  Mean percent chromium release (2SE), Effector:Target 25:1: 10.6(1.8) percent and 11.8(1.7) percent and 16.9(1.3) percent
  Mean percent chromium release (2SE), Effector:Target 50:1: 16.6(1.9) percent and 16.4(1.8) percent and 20.8(1.4) percent
  Mean percent chromium release (2SE), Effector:Target 100:1: 20.0(2.0) percent and 22.3(2.0) percent and 26.5(1.6) percent
YAC-1 tumor cells [9]; mouse, in vivo, 200 mg/kg/day
  Mean percent chromium release (2SE), Effector:Target 25:1: 11.3(0.6) percent and 8.6(0.6) percent and 9.6(0.9) percent
  Mean percent chromium release (2SE), Effector:Target 50:1: 17.3(1.4) percent and 12.8(0.7) percent and 12.9(0.9) percent
  Mean percent chromium release (2SE), Effector:Target 100:1: 20.4(2.4) percent and 18.2(1.0) percent and 17.6(1.1) percent
[10]; 200 mg/kg/day
  IL-1 Conc. (2SE): 16.6(3.7) μg/ml and 31.4(3.4) μg/ml and 29.1(7.4) μg/ml
[10]
  Effect on macrophage activation (in words): significant macrophage activator; also recorded: macrophage stimulation
